Test results: patent US10231958B2, “Methods and compositions for enhancing chemotherapy” (THE BOARD OF REGENTS OF THE UNIVERSITY OF TEXAS SYSTEM, priority 2015, dated 2019)

Columns and labels:
[1] = tested on: Intracellular glutathione levels; assay: Glutathione assay; format: cell-based; details: glutathione precursors
Procedure: Intracellular glutathione levels were measured using the Glutathione (GSH/GSSG/Total) Fluorometric Assay Kit (BioVision Incorporated, Calif.), following manufacturer protocol. Briefly, 1×10^6 cells were scraped in PBS and centrifuged. Pellets were resuspended in 100 μL Glutathione assay buffer. 60 μL of this homogenate was mixed with PCA (perchloric acid) and centrifuged. Supernatant containing small molecules including GSH were neutralized with KOH and 3 fractions were collected and separated to analyze reduced (GSH), oxidized (GSSG) and total glutathione forms (GSH+GSSG) by reaction with OPA probe (o-phthalaldehyde) in the presence or absence of GSH quencher or reducing agents depending on the compound to be determined. Fluorescence was monitored at Ex/Em=340/420 nm for 40 min. Glutathione forms were calculated and normalized by protein (Bradford's assay).

[2] = tested on: Intracellular ROS production; assay: Real-time ROS production (DCF assay); format: cell-based; details: for effect on ROS levels: Trolox 200 μM, NAC 7.5 mM, GSH-E 10 mM
Procedure: Intracellular ROS production was detected using DCFH-DA probe (Sigma) (Zanotto-Filho et al., 2010, Cancer Lett 288, 192-203). This reagent enters the cells and reacts predominantly with highly oxidizing species of ROS, such as hydroxyl radicals, hydroperoxides, and peroxynitrite, thus producing the fluorophore DCF. Briefly, cells were seeded in black-edge clear bottom 96-well plates. After reaching 70% confluence, medium was changed and cells were incubated with 20 μM DCFH-DA dissolved in medium containing 0.5% FBS. After 1 h pre-incubation to allow DCFH-DA uptake, treatments were added to its respective final concentrations and DCF fluorescence was monitored at 0.5, 1, 3, 8, 12, 16 and 24 h in a fluorescence reader (Ex/Em=485/532 nm). Hydrogen peroxide was used as a positive control and N-acetylcysteine (NAC), GSH-ethyl-ester (GSH-E) and Trolox were used as antioxidant standards. As a control, at the end of 24 h, cell viability was assessed and compared to wells in the absence of DCFH-DA.

[3] = tested on: Kc167 cells, MEFs, and MDA-MB231 breast cancer cells; assay: Cell viability (CellTiter-Glo); format: cell-based, D. melanogaster, mouse, human; details: for effect on MMS toxicity / effect on toxicity of 4-HC, TMZ and CDDP: pre-incubation; for effect on MMS toxicity: then MMS, all cell types tested, 48 h; for effect on toxicity of 4-HC, TMZ and CDDP: then alkylator
Procedure: The D. melanogaster embryonic cell line Kc167 was grown in Schneider medium (Invitrogen, Carlsbad, Calif.) supplemented with 10% heat-inactivated (56° C./30 min) fetal bovine serum (FBS), penicillin and streptomycin at 22° C. in a humidified incubator. Primary MEFs were obtained by harvesting 14.5-day C57BL/6J embryos as previously described (Ravi et al., 2009, PLoS Genet 5, e1000527). Briefly, fetal liver and head were removed and the remainder of the embryo was mechanically disaggregated in plating medium. A suspension of single-cells was plated in DMEM (plus 10% FBS, 100 U/mL penicillin and 100 μg/mL streptomycin). MEFs were grown for two passages before freezing aliquots. Aliquots were taken and expanded as needed for each experiment. MDA-MB231, SkBr3 and MCF-7 breast cancer cells lines were obtained from ATCC and grown in DMEM supplemented with 10% inactivated FBS plus antibiotics in a 37° C. humidified incubator at […] atmosphere. Cells were kept and treated in the exponential phase of growing (60-70% confluence). […] DMSO concentrations were kept to a maximum of 0.1% for all experiments. Cell viability was assessed using CellTiter-Glo Luminescent Viability assay (Promega) in 384 or 96-well plates white-border clear-bottom plated cells. For caspase-3/7 activity, Caspase-Glo 3/7 Assay kits were used (Promega). For caspase assays, the cells were seeded in 96-well plates and assayed directly after treatments. Caspase-3/7 inhibitor (Z-DEVD-fmk) was used to ensure assay specificity. LDH release into culture medium was quantified by Cytotox-96 Non-Radioactive assay kit in agreement with instructions (Promega).

human endothelial cells = assay: In vitro angiogenesis (Angiophase kit, CD31); format: cell-based; details: direct incubation
Procedure: (§1) Quantification of MMP1 and MMP3 content in culture medium was assessed using RayBio-MMP3 and RayBio-MMP1 Elisa Kit (RayBiotech, Inc); IL8 was analyzed by Human IL-8 Elisa kit (Pierce Biotechnology). The levels of prostaglandin E2 (PGE2) were determined using the Prostaglandin E2 EIA Kit Monoclonal (Cayman Chemical Company). Culture media were diluted to fit within the standard curves. For conditioned media (CM) preparation for invasion and in vitro angiogenesis experiments, 12-well plated cells were treated with MMS (or MMS plus inhibitors) for 8 h in the presence of 10% FBS, twice washed with HBSS, and incubated with 700 μL drug/serum-free fresh medium for additional 12 h. Thereafter, the conditioned fresh medium was collected and directly used for migration and invasion experiments in order to reduce freezing associated loss of activity.
The Angiophase kit (MBL Inc.) was used to assess the angiogenic potential of conditioned media (CM) from breast cancer cells or the direct effect of pharmaceutical inhibitors (free-drug system) on vessel-like structures formation in vitro. With this kit, human endothelial cells are co-cultured in a specially designed medium to form threadlike tubule structures. These gradually join up to form a network of anastomosing tubules, which resemble the capillary bed found in the CAM assay. Kit-provided cryopreserved co-culture of human endothelial cells were plated and kept for 96 h (proliferative phase) without treatments. Afterwards, the cells were maintained in the presence of conditioned medium from alkylating agent treated cells or control medium for a total of 14 days (angiogenic/vasculogenic phase). Medium was changed each 2 days. At the end of treatments, the cells were fixed and immune-stained for CD31 (PECAM-1), following by incubation with secondary antibody conjugate. ELISA was developed using the soluble substrate p-nitrophenyl-phosphate (p-NPP) whose product was colorimetrically read at 405 nm. After ELISA assays, the wells were washed with dH2O and tubule staining was performed by incubating CD31-stained tubules with the substrate BCIP/NBT, which form insoluble precipitates. Tubules were counted and photographed for qualitative monitoring.

MDA-MB231 cells = assay: Extracellular matrix invasion assay (Boyden chamber); format: cell-based, human; details: direct incubation
Procedure: as §1
The invasion potential of breast cancer cells was estimated using the QCM™ 24-Well Cell Invasion Assay Fluorimetric (Millipore). Serum starved cells were trypsinized, trypsin-inhibited, centrifuged, resuspended to 5000 cells/μL, and 50 μL of this suspension (250,000 cells) was seeded on 8 μm pore size inserts coated with extracellular matrix in serum-free conditions. Afterwards, 200 μL conditioned (CM) or fresh medium without serum was added to top chambers. The bottom chamber consisted of 500 μL of DMEM supplemented with 10% FBS as chemoattractant. Cells were allowed to migrate for 24 h at 37° C. under 5% CO2. Invaded cells were detached from the bottom side of the insert, lysed and incubated with CyQuant GR fluorescent Dye for 15 min. Fluorescence was read at Ex/Em=480/520 nm. Percentage of invading cells was compared to cell number standard curves.

[4] = tested on: MAPKs (ERK1/2, JNK1/2 and p38) and ATF2; assay: Western blot of MAPK phosphorylation; format: cell-based; details: MDA-MB231 cells, 8 h
Procedure: (§2) Western blot. Protein lysates were prepared using RIPA buffer containing 5% sodium deoxycholate, 0.1% SDS, 0.1% Igepal in PBS with a cocktail of protease and phosphatase inhibitors (1 mM PMSF, 1 mM sodium orthovanadate, 1 mM NaF, and 30 μL/mL aprotinin (Sigma-Aldrich, USA)) and clarified by centrifugation. Protein concentration was determined using Bradford Protein Assay Reagent (Biorad, Hercules, Calif.). Equal amounts of protein were resolved using 8-12% SDS polyacrylamide gel, transferred onto nitrocellulose membranes (Hybond-ECL, GE Healthcare Lifesciences, Piscataway, N.J.) and detected using Lumiglo system (Cell Signaling Technology, Calif.) and x-ray films. Primary antibodies included COX-2 (#4842), NRF2 (D1C9), p-JNK1/2 (Thr183/Tyr185, #4671), p-p38 (Thr180/Tyr182, #9216), p-ERK1/2 (Thr202/Tyr204, #9101), BiP/GRP78 (C50B12), IRE1a (14C10), CHOP (L63F7) and PERK (D11A8) from Cell Signaling Technology; p-IRE1a (Ser724; NB100-2323) from Novus Biologicals; GCLC (Ab41463), beta-actin (ab8227) and ATF6 (Ab37149) from Abcam; p-PERK (Thr 981, sc-32577) and ATF3 (C19) were purchased from Santa Cruz. All primary antibodies were used at 1:1000 dilutions and secondary antibodies were 1:3000 in TBS-T with 5% BSA.

[5] = tested on: NRF2, GCLC, ER stress markers; assay: Western blot of NRF2, GCLC and ER stress markers; format: cell-based; details: CHX 1 μg/mL, Actinomycin D 5 μg/mL, NAC 7.5 mM
Procedure: as §2

[6] = tested on: NFκB-responsive firefly luciferase construct in MDA-MB231 cells; assay: NFκB gene reporter assay; format: cell-based, human; details: MDA-MB231, pre-incubation with inhibitor
Procedure: (§3) Prior to transfection, cells were plated in 96-well plates to 80-90% confluence (100 μL antibiotic free-medium) after 24 h. When used, siRNA were incubated by reverse transfection during cells seeding. […] A mixture of non-inducible firefly luciferase construct and constitutively expressing Renilla luciferase construct (40:1) were used as negative controls. Approximately 24 h post-transfection, the medium was changed and the cells were treated for 12 h with alkylating agents (with/out 6 h pre-treatments). At the end of this period, medium was changed to drug-free fresh medium (to minimize the effect of alkylating toxicity on promoters activity) and cells were kept for an additional 12 h.

[7] = tested on: AP1-responsive firefly luciferase construct in MDA-MB231 cells; assay: AP-1 gene reporter assay; format: cell-based, human; details: MDA-MB231, pre-incubation with inhibitor
Procedure: as §3

[8] = tested on: protein sulfhydryl (protein-SH) groups; assay: Protein sulfhydryl groups (dibromobimane assay); format: cell-based; details: BSO treatment plus MMS
Procedure: Protein reduced thiol groups (Protein-SH) were measured by dibromobimane assays with minor modifications (PMID:20463849). The 6-well plated cells (500,000 cells) were scraped in 0.6 mL PBS and 200 μL Perchloric acid (6 N) was added to precipitate proteins. The samples were incubated for 5 min in ice, centrifuged (14,000×g) Supernatants containing small peptides and glutathione were discarded and pellets were resuspended in 100 μL NaOH 0.1N, neutralized with 100 μL ice cold Perchloric acid (0.1 N), and 0.1 N PBS was added to keep pH constant. A stock solution of 4 mM dibromobimane in DMSO was added to a final concentration 40 μM, and incubated for 30 30 min at 37° C. Dibromobimane-protein fluorescence was measured at Ex=393 and, Em=477 nm.

Row | Molecule | effect on GSH levels [1] | effect on ROS levels [2] | effect on MMS toxicity [3] | effect on toxicity of 4-HC, TMZ and CDDP [3] | trans-well invasion, purified factor (MDA-MB231 cells) | also measured
1 | CCOC(=O)CNC(=O)[C@H](CS)NC(=O)CC[C@H](N)C(=O)O [GSH-E, glutathione ethyl-ester] | effectively increased the GSH levels | reduced ROS below levels of the control | protective against MMS toxicity | attenuated |  | 
2 | IL8: purified IL8 |  |  |  |  | stimulated trans-well invasion | vessel-like structure formation, purified factor (human endothelial cells): angiogenic
3 | CC(=O)N[C@@H](CS)C(=O)O [NAC, N-Acetyl-Cysteine] | effectively increased the GSH levels | reduced ROS below levels of the control | protective against MMS toxicity | attenuated |  | effect on MMS-induced MAPK phosphorylation [4]: inhibited; effect on MMS-induced NRF2 activation [5]: block both NRF2 activation and ER stress caused by MMS; effect on BSO+MMS toxicity ([3]; NAC pretreatment): rescued the deleterious effects of BSO+MMS combination
4 | MMP1: purified MMP1 |  |  |  |  | stimulated trans-well invasion | 
5 | N#CC(=C(/N)Sc1ccccc1N)/C(C#N)=C(/N)Sc1ccccc1N [UO126] |  |  |  |  |  | effect on MMS-induced activation of NFκB reporter [6]: blocked; decrease in cell numbers (anti-proliferative, not cytotoxic) (MDA-MB231): 30%; effect on MMS-induced activation of AP-1 reporter [7]: blocked
6 | CCCCS(=N)(=O)CCC(N)C(=O)O (centres unmarked) [BSO, buthionine sulfoximine] |  |  | substantial necrotic cell death | potentiated |  | effect on depletion of protein-SH residues by MMS [8]: potentiated the depletion of protein-SH residues by MMS; ROS production, agent alone ([2]; BSO 2.5 mM, CDDP 75 μM, TMZ 1.5 mM, 4HC 75 μM, 12 h): increased ROS to levels higher than the dose of MMS used; effect on MMS-induced ROS ([2]; BSO plus MMS): 2 fold; viability, agent alone ([3]; 2.5 mM, up to 48 h): without effect on viability
